Our source for the IC50 values is patent publication US12275731B2, “Azaindole inhibitors of wild-type and mutant forms of LRRK2” (DANA-FARBER CANCER INSTITUTE, INC., priority 2018, dated 2025).

Each structure is given as a SMILES string.

The term IC50 denotes the concentration that gives 50% inhibition.

The target in one experiment is T1, LRRK2 WT enzyme (Homo sapiens, UniProt Q5S007).
T1 construct: purchased Thermo Fisher Scientific PR8604B
Briefly: LRRK2 wild type kinase inhibition assay (ADP-Glo). It is filed as biochemical. To be noted: Table 2, class symbols; read-out: Enzyme activity against LRRK2 WT (IC50). As to the method: (§1) IC50 experiments were performed for inventive compounds. An exemplary kit to perform this assay includes the Adapta™ Screening Protocol and Assay Conditions by Invitrogen™ (Fisher Scientific™, Catalog No. PV5099).
(§2) All LRRK2 kinase inhibition assays were conducted by using Promega ADP-Glo™ Kinase assay systems (Catalog number; V4475). Inhibitors were tested with 12 concentrations over a 5-fold serial dilution series (50 μM, 10 μM, 2 μM, 400 nM, 80 nM, 16 nM, 3.2 nM, […]) and PF06447475 as positive control. For the LRRK2 wild type (WT) enzyme assay, each inhibitor was mixed with 0.2 μg/μL of substrate (LRRKtide, SignalChem, Richmond, BC, Canada), […] (Invitrogen™, Carlsbad, CA), 24 ng of LRRK2 WT enzyme (Thermo Fisher Scientific, PR8604B) in 384-well plate. For LRRK G2019S, each compound was mixed with 0.2 μg/μL of substrate, […], 16 ng of LRRK2 G2019S enzyme (SignalChem, L10-12GG). All samples were diluted with kinase reaction buffer (40 mmol/L TrisHCl, 10 mmol/L MgCl2, and 0.1 μg/μL BSA (bovine serum albumin)). After 2 hours at 25° C., ADP-Glo™ (Promega, Madison, WI) reagent was added and the samples were incubated at rt for 40 min. Finally, Kinase Detection Reagent was added and the resulting mixtures were allowed to react at rt for 10 min. Luminescence signals were detected using Synergy™ Neo2 microplate reader (Bio-Tek). Compound inhibition curve was fitted using Graphpad Prism 8.0 software.
For orientation: ADP-Glo turns the ADP formed in a reaction into a luminescent signal.

Another experiment addresses LRRK2(G2019S) (Homo sapiens, UniProt Q5S007, G2019S). Briefly: LRRK2 G2019S kinase inhibition assay (ADP-Glo). It is filed as biochemical. Details: purchased SignalChem L10-12GG. To be noted: Table 2, class symbols; read-out: Enzyme activity against LRRK2 G2019S (IC50). As to the method: as §1, §2

T1 sequence (Q5S007 970-2527 limits assumed): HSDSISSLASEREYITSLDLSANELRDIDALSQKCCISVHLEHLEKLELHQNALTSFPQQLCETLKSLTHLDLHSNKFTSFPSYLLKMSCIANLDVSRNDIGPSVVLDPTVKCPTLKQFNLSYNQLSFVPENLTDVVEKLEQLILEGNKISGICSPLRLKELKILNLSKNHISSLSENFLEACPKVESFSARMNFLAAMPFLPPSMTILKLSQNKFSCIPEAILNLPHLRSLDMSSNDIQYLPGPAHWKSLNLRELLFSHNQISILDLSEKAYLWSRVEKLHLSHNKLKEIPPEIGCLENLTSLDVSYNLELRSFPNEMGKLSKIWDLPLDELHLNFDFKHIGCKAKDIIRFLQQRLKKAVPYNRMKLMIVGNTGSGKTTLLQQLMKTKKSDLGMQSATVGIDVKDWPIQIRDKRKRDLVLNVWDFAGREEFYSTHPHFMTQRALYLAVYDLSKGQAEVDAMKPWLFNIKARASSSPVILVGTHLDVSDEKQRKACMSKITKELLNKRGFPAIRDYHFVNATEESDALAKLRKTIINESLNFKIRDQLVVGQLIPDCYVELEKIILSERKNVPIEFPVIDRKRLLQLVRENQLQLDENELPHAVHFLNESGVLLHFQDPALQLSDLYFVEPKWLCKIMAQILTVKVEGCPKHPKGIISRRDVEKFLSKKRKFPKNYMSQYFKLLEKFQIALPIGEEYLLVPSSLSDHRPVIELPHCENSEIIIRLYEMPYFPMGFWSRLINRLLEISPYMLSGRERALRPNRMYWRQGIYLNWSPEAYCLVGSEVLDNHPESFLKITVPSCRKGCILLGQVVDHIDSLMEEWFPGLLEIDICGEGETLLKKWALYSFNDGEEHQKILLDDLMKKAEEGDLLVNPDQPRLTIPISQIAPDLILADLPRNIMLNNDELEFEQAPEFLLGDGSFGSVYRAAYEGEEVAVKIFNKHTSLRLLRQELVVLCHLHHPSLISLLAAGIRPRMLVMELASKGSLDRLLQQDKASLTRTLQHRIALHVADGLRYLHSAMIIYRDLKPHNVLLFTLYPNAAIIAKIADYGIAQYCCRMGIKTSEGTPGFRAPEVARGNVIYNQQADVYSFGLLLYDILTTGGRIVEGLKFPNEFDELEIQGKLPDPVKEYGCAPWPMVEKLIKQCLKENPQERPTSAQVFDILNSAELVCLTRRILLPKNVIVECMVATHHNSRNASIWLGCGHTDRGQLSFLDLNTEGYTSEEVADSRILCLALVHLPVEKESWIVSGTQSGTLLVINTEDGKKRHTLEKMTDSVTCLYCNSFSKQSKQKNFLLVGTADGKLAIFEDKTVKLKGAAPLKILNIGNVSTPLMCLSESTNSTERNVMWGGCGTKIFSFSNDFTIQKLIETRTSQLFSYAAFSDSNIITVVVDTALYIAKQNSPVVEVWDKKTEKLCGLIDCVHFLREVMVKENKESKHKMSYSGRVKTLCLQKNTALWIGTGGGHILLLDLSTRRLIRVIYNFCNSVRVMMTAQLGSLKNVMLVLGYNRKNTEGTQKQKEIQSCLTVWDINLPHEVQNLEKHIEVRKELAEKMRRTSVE
Sequence of LRRK2(G2019S) (Q5S007 970-2527 G2019S limits assumed): as the sequence (Q5S007 970-2527 limits assumed) above, with G1050S counted along it

Regarding `CCNc1c(-c2ccc(C(=O)N3CCC(N4CCOCC4)CC3)cc2)cnc2[nH]cc(Cl)c12` [Compound 97, (4-(3-chloro-4-(ethylamino)-1H-pyrrolo[2,3-b]pyridin-5-yl)phenyl)(4-morpholinopiperidin-1-yl)methanone], the half-inhibitory concentration (IC50) at LRRK2 WT enzyme is less than 0.01 µM; on LRRK2(G2019S) it was 0.01 to 0.1 µM.
